The target of this assay is human F508del-CFTR (Homo sapiens, UniProt P13569, DEL508-508). As to the kind of experiment: F508del-CFTR cell surface expression (corrector activity), DiscoveRx ß-galactosidase complementation chemiluminescence assay in recombinant U2OS cell line.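 As to all read-outs here: U2OS cells co-expressing ProLink-tagged F508del-CFTR and a membrane-anchored enzyme acceptor, where more surface CFTR restores β-galactosidase activity measured by chemiluminescence.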 As to conditions: U2OS cells, 16h compound incubation; for EC50: EC50, F508del-CFTR cell surface expression, geomean of several measurements; for Emax: U2OS, in relation to the Emax of the corrector lumacaftor (=100%), arithmetic mean.

The values that follow come from patent US20240208992A1, “MACROCYCLES AS CFTR MODULATORS” (Idorsia Pharmaceuticals Ltd, priority 2021, published 2024).

Sequence of human F508del-CFTR (P13569 with tags, fused parts or gaps DEL508-508): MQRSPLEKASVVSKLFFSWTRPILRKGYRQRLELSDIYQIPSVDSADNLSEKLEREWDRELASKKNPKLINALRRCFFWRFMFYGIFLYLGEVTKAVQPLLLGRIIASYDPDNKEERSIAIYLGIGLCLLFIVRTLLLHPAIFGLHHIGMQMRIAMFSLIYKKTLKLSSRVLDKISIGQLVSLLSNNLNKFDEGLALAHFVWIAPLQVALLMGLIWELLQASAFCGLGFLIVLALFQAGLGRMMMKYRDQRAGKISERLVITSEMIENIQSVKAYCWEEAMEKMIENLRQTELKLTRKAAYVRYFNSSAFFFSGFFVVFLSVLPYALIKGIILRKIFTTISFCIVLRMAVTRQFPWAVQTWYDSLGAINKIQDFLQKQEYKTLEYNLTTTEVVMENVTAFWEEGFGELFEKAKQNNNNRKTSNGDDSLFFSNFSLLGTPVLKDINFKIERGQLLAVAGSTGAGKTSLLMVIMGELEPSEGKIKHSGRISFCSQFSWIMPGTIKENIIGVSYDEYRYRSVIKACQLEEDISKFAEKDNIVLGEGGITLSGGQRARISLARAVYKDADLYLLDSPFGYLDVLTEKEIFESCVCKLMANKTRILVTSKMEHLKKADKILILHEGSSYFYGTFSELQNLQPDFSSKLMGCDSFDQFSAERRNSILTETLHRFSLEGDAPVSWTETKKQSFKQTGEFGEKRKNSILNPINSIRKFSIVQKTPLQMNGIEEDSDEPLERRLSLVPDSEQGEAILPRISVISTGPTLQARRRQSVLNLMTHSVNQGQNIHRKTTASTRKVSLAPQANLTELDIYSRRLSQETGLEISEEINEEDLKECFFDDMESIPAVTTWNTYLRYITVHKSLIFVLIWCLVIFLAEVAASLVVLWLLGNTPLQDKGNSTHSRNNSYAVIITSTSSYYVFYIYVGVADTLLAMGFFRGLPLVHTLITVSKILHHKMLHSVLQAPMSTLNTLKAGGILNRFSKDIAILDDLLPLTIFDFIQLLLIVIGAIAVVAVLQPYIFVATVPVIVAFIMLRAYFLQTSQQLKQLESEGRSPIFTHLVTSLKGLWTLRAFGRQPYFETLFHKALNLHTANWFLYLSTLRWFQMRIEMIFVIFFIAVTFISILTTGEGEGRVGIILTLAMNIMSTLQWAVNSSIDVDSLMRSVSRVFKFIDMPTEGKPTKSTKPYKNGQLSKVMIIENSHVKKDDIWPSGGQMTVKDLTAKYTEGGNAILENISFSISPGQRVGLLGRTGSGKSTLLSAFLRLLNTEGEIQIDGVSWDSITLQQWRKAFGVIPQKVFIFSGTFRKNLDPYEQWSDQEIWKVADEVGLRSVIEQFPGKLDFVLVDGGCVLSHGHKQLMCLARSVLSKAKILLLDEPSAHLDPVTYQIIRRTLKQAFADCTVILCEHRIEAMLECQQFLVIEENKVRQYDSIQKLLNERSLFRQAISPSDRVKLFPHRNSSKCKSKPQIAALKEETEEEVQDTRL

The EC50 is the midpoint of the concentration-response curve. Broadly, the Emax is the greatest response seen or fitted, relative to the assay's reference. For the compound `COc1cccc(CCNC(=O)[C@@H]2CC(=O)N(C)[C@@H](CC(C)C)C(=O)N3CCN(c4ccc(F)cn4)C[C@@H]3C(=O)N[C@H](Cc3ccccc3)COc3cnc4ccccc4c3C(=O)N2)c1` [Example 853, (9S,13S,19aR,22R)-22-benzyl-18-(5-fluoropyridin-2-yl)-13-isobutyl-N-(3-methoxyphenethyl)-12-methyl-7,11,14,20-tetraoxo-7,8,9,10,11,12,13,14,17,18,19,19a,20,21,22,23-hexadecahydro-16H-pyrazino[2′,1′:6,7][1]oxa[4,7,10,14]tetraazacycloheptadecino[17,16-c]quinoline-9-carboxamide], the EC50 came to 92 nM and the Emax turned out to be 322%.
Regarding `COc1cc(CCNC(=O)[C@@H]2CC(=O)N(C)[C@@H](CC(C)C)C(=O)N(C)[C@H](CC3CCC(F)(F)CC3)C(=O)N[C@H](Cc3ccccc3)COc3ccnc(OC)c3C(=O)N2)on1` [Example 854, (3R,6R,9S,13S)-3-benzyl-6-((4,4-difluorocyclohexyl)methyl)-9-isobutyl-16-methoxy-N-(2-(3-methoxyisoxazol-5-yl)ethyl)-7,10-dimethyl-5,8,11,15-tetraoxo-2,3,4,5,6,7,8,9,10,11,12,13,14,15-tetradecahydropyrido[3,4-p][1]oxa[4,7,10,14]tetraazacycloheptadecine-13-carboxamide], the EC50 was determined as 136 nM and the Emax worked out at 326%.
For `COc1nccc2c1C(=O)N[C@H](C(=O)NCCc1cc(C)no1)CC(=O)N(C)[C@@H](CC(C)C)C(=O)N(C)[C@H](CCOc1ccccc1)C(=O)N[C@H](Cc1ccccc1)CO2` [Example 855, (3R,6R,9S,13S)-3-benzyl-9-isobutyl-16-methoxy-7,10-dimethyl-N-(2-(3-methylisoxazol-5-yl)ethyl)-5,8,11,15-tetraoxo-6-(2-phenoxyethyl)-2,3,4,5,6,7,8,9,10,11,12,13,14,15-tetradecahydropyrido[3,4-p][1]oxa[4,7,10,14]tetraazacycloheptadecine-13-carboxamide] the same measures were 80 nM and 341%.
For `COc1cc(CCNC(=O)[C@@H]2CC(=O)N(C)[C@@H](CC(C)C)C(=O)N(C)[C@H](CCOc3ccccc3)C(=O)N[C@H](Cc3ccccc3)COc3ccnc(OC)c3C(=O)N2)on1` [Example 856, (3R,6R,9S,13S)-3-benzyl-9-isobutyl-16-methoxy-N-(2-(3-methoxyisoxazol-5-yl)ethyl)-7,10-dimethyl-5,8,11,15-tetraoxo-6-(2-phenoxyethyl)-2,3,4,5,6,7,8,9,10,11,12,13,14,15-tetradecahydropyrido[3,4-p][1]oxa[4,7,10,14]tetraazacycloheptadecine-13-carboxamide], in that order: 35 nM and 357%.
Regarding `COc1nccc2c1C(=O)N[C@H](C(=O)NCCc1noc(C3CC3)n1)CC(=O)N(C)[C@@H](CC(C)C)C(=O)N(C)[C@H](COC1CCC1)C(=O)N[C@H](Cc1ccccc1)CO2` [Example 857, (3R,6R,9S,13S)-3-benzyl-6-(cyclobutoxymethyl)-N-(2-(5-cyclopropyl-1,2,4-oxadiazol-3-yl)ethyl)-9-isobutyl-16-methoxy-7,10-dimethyl-5,8,11,15-tetraoxo-2,3,4,5,6,7,8,9,10,11,12,13,14,15-tetradecahydropyrido[3,4-p][1]oxa[4,7,10,14]tetraazacycloheptadecine-13-carboxamide], the EC50 amounted to 407 nM and the Emax amounted to 337%.
For `COc1nccc2c1C(=O)N[C@H](C(=O)NCCc1cc(C)no1)CC(=O)N(C)[C@@H](CC(C)C)C(=O)N(C)[C@H](CCOC1CCCCC1)C(=O)N[C@H](Cc1ccccc1)CO2` [Example 858, (3R,6R,9S,13S)-3-benzyl-6-(2-(cyclohexyloxy)ethyl)-9-isobutyl-16-methoxy-7,10-dimethyl-N-(2-(3-methylisoxazol-5-yl)ethyl)-5,8,11,15-tetraoxo-2,3,4,5,6,7,8,9,10,11,12,13,14,15-tetradecahydropyrido[3,4-p][1]oxa[4,7,10,14]tetraazacycloheptadecine-13-carboxamide] the same measures were 95 nM and 308%.
Turning to `COc1nccc2c1C(=O)N[C@H](C(=O)NCCc1noc(C3CC3)n1)CC(=O)N(C)[C@@H](CC(C)C)C(=O)N(C)[C@H](Cc1nc(-c3ccccc3)no1)C(=O)N[C@H](Cc1ccccc1)CO2` [Example 859, (3R,6R,9S,13S)-3-benzyl-N-(2-(5-cyclopropyl-1,2,4-oxadiazol-3-yl)ethyl)-9-isobutyl-16-methoxy-7,10-dimethyl-5,8,11,15-tetraoxo-6-((3-phenyl-1,2,4-oxadiazol-5-yl)methyl)-2,3,4,5,6,7,8,9,10,11,12,13,14,15-tetradecahydropyrido[3,4-p][1]oxa[4,7,10,14]tetraazacycloheptadecine-13-carboxamide], the EC50 is 36 nM and the Emax was 342%.
For `COc1cccc(CCNC(=O)[C@@H]2CC(=O)N(C)[C@@H](CC(C)C)C(=O)N(C)[C@H](C)C(=O)N[C@H](Cc3ccccc3)COc3nc(C)nc(OC)c3C(=O)N2)c1` [Example 860, (7S,11S,14R,17R)-17-benzyl-11-isobutyl-4-methoxy-N-(3-methoxyphenethyl)-2,10,13,14-tetramethyl-5,9,12,15-tetraoxo-5,6,7,8,9,10,11,12,13,14,15,16,17,18-tetradecahydropyrimido[5,4-p][1]oxa[4,7,10,14]tetraazacycloheptadecine-7-carboxamide] the same measures were 578 nM and 288%.
`COc1cc(C[C@@H]2C(=O)N[C@H](Cc3ccccc3)COc3ccnc(OC)c3C(=O)N[C@H](C(=O)NCCc3noc(C4CC4)n3)CC(=O)N(C)[C@@H](CC(C)C)C(=O)N2C)on1` [Example 861, (3R,6R,9S,13S)-3-benzyl-N-(2-(5-cyclopropyl-1,2,4-oxadiazol-3-yl)ethyl)-9-isobutyl-16-methoxy-6-((3-methoxyisoxazol-5-yl)methyl)-7,10-dimethyl-5,8,11,15-tetraoxo-2,3,4,5,6,7,8,9,10,11,12,13,14,15-tetradecahydropyrido[3,4-p][1]oxa[4,7,10,14]tetraazacycloheptadecine-13-carboxamide]: the EC50 stood at 722 nM and the maximal response (Emax) came out at 384%.
Regarding `COc1nc(C)nc2c1C(=O)N[C@H](C(=O)NCCc1cc(C3CC3)no1)CC(=O)N(C)[C@@H](CC(C)C)C(=O)N(C)[C@H](C)C(=O)N[C@H](Cc1ccccc1)CO2` [Example 862, (7S,11S,14R,17R)-17-benzyl-N-(2-(3-cyclopropylisoxazol-5-yl)ethyl)-11-isobutyl-4-methoxy-2,10,13,14-tetramethyl-5,9,12,15-tetraoxo-5,6,7,8,9,10,11,12,13,14,15,16,17,18-tetradecahydropyrimido[5,4-p][1]oxa[4,7,10,14]tetraazacycloheptadecine-7-carboxamide], the EC50 is 921 nM and the Emax was determined as 335%.
As to `COc1nccc2c1C(=O)N[C@H](C(=O)NCCc1noc(C3CC3)n1)CC(=O)N(C)[C@@H](CC(C)C)C(=O)N1CCCCC[C@@H]1C(=O)N[C@H](Cc1ccccc1)CO2` [Example 863, (7S,11S,18aR,21R)-21-benzyl-N-(2-(5-cyclopropyl-1,2,4-oxadiazol-3-yl)ethyl)-11-isobutyl-4-methoxy-10-methyl-5,9,12,19-tetraoxo-5,6,7,8,9,10,11,12,14,15,16,17,18,18a,19,20,21,22-octadecahydroazepino[2,1-f]pyrido[3,4-p][1]oxa[4,7,10,14]tetraazacycloheptadecine-7-carboxamide], the EC50 was 587 nM and the Emax was found to be 326%.
With `COc1nccc2c1C(=O)N[C@H](C(=O)NCCc1noc(C3CC3)n1)CC(=O)N(C)[C@@H](CC(C)C)C(=O)N(C)[C@H](CCc1nc(C3CC3)no1)C(=O)N[C@H](Cc1ccccc1)CO2` [Example 864, (3R,6R,9S,13S)-3-benzyl-N-(2-(5-cyclopropyl-1,2,4-oxadiazol-3-yl)ethyl)-6-(2-(3-cyclopropyl-1,2,4-oxadiazol-5-yl)ethyl)-9-isobutyl-16-methoxy-7,10-dimethyl-5,8,11,15-tetraoxo-2,3,4,5,6,7,8,9,10,11,12,13,14,15-tetradecahydropyrido[3,4-p][1]oxa[4,7,10,14]tetraazacycloheptadecine-13-carboxamide], the EC50 was found to be 617 nM and the Emax stood at 385%.
For `COc1cccc(CCNC(=O)[C@@H]2CC(=O)N(C)[C@@H](CC(C)C)C(=O)N(C)[C@H](C(C)(C)C)C(=O)N[C@H](Cc3ccccc3)COc3cc(C)nc(OC)c3C(=O)N2)c1` [Example 865, (3R,6R,9S,13S)-3-benzyl-6-(tert-butyl)-9-isobutyl-16-methoxy-N-(3-methoxyphenethyl)-7,10,18-trimethyl-5,8,11,15-tetraoxo-2,3,4,5,6,7,8,9,10,11,12,13,14,15-tetradecahydropyrido[3,4-p][1]oxa[4,7,10,14]tetraazacycloheptadecine-13-carboxamide], in that order: 103 nM and 356%.
Regarding `COc1nc(C)cc2c1C(=O)N[C@H](C(=O)NCCc1cc(C)no1)CC(=O)N(C)[C@@H](CC(C)C)C(=O)N(C)[C@H](C(C)(C)C)C(=O)N[C@H](Cc1ccccc1)CO2` [Example 866, (3R,6R,9S,13S)-3-benzyl-6-(tert-butyl)-9-isobutyl-16-methoxy-7,10,18-trimethyl-N-(2-(3-methylisoxazol-5-yl)ethyl)-5,8,11,15-tetraoxo-2,3,4,5,6,7,8,9,10,11,12,13,14,15-tetradecahydropyrido[3,4-p][1]oxa[4,7,10,14]tetraazacycloheptadecine-13-carboxamide], the EC50 was determined as 337 nM and the Emax is 324%.
